Experimental findings from patent US20260098030A1, “NEGATIVE ALLOSTERIC MODULATORS OF METABOTROPIC GLUTAMATE RECEPTOR 2” (Vanderbilt University, priority 2022, published 2026) are described below.

T2 sequence (Q14416 19-872): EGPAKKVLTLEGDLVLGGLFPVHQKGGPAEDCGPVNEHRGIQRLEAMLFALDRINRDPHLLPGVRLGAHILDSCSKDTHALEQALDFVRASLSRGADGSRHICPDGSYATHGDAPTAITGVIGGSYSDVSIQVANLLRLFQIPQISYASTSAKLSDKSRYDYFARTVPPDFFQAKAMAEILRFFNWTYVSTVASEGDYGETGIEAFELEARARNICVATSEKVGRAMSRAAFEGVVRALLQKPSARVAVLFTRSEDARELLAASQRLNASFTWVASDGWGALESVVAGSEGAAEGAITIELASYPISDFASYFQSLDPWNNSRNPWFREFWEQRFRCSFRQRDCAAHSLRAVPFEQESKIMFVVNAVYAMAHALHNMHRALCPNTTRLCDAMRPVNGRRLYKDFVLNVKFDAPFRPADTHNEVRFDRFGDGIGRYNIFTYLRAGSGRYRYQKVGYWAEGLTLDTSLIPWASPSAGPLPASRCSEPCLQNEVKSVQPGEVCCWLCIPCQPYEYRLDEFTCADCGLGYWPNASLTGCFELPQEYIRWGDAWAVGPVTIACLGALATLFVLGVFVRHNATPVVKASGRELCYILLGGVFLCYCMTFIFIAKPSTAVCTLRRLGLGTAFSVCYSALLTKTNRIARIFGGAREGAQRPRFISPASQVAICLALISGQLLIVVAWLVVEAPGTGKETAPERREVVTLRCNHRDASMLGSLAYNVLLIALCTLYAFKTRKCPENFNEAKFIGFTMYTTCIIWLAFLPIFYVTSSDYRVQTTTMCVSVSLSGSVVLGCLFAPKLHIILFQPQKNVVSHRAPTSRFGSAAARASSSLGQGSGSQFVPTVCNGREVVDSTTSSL
T1 sequence (P31421 19-872): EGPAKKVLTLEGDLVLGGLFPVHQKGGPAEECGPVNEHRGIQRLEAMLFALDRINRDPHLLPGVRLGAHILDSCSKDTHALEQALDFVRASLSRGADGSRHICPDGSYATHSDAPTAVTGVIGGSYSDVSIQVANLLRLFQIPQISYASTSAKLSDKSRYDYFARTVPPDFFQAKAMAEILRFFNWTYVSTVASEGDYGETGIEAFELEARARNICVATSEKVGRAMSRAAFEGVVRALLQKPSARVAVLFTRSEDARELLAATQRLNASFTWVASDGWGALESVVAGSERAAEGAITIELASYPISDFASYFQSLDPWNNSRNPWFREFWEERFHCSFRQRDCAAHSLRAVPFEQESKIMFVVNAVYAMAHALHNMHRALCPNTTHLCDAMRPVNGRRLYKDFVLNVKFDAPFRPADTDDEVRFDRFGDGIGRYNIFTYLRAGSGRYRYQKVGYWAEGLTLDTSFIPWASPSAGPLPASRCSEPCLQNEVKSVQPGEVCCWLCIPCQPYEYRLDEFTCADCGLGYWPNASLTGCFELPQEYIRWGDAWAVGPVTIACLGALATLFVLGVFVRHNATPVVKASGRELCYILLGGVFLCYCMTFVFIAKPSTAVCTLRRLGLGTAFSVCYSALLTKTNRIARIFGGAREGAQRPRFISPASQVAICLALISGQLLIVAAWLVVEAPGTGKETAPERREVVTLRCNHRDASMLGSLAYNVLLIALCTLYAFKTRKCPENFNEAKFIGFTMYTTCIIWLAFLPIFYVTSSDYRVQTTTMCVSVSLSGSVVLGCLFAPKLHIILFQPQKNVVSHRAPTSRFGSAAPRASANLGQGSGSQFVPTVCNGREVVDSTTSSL

One assay addresses T1, rat mGlu2 (Rattus norvegicus, UniProt P31421).
T1 construct: expressed in transfected cells; host or cells: HEK-293 cells stably co-expressing GIRK channels
The assay is described as follows: mGlu GIRK cell-based thallium flux assay, rat mGlu2. The following applies: HEK-293 cells co-expressing rat mGlu2 and GIRK, EC80 glutamate. The procedure, abridged:
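HEK-293 cells stably co-expressing GIRK with human mGlu3, human mGlu2 or rat mGlu2 were loaded 1 h at 25° C with Thallos dye, then given compound (30 μM to 1.5 nM final, 10-point) for 2 min 20 s before EC80 glutamate plus thallium. Baseline-corrected fluorescence slope, normalized to ECmax glutamate, fitted to 4-parameter logistic for IC50.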
What is called IC50 is the concentration that inhibits the measured activity by half. `Cn1cc2cc(-c3cc4c(cc3-c3ccc(F)cc3)C(=O)NC4)ccc2n1` [Compound 7, 6-(4-fluorophenyl)-5-(2-methyl-2H-indazol-5-yl)isoindolin-1-one] displayed an IC50 above 10000 nM.
Still for that read-out and setting: next, `O=C1NCc2cc(-c3ccncc3)c(-c3ccc(F)cc3)cc21` [Compound 4, 6-(4-fluorophenyl)-5-(pyridin-4-yl)isoindolin-1-one]: above 10000 nM.

A further assay has as its target T2, human mGlu2 (Homo sapiens, UniProt Q14416).
T2 construct: expressed in transfected cells; host or cells: HEK-293 cells stably co-expressing GIRK channels
The assay is described as follows: mGlu GIRK cell-based thallium flux assay, human mGlu2. The following applies: HEK-293 cells co-expressing human mGlu2 and GIRK, EC80 glutamate. The protocol:
Human embryonic kidney (HEK-293) cell lines stably co-expressing human or rat mGlu2 and G protein-coupled inwardly rectifying potassium (GIRK) channels, or human mGlu3 and GIRK, were used for in vitro evaluation of compound activity in thallium flux assay using a fluorescent thallium indicator dye.
The day before the assay, GIRK cells co-expressing human mGlu3, human or rat mGlu2, as described above, were plated in black-walled, clear-bottomed, amine-coated 384-well plates at a density of 15,000 cells/20 μL/well in the assay medium (glutamine-depleted basal DMEM supplemented with 10% dialyzed FBS, 20 mM HEPES, 1 mM sodium pyruvate). Cells were incubated at 37° C. in the presence of 5% CO2. The next day, assay buffer (Hanks balanced salt solution, 20 mM HEPES, 4.16 mM sodium bicarbonate, pH 7.2) was prepared to dilute compounds and Thallos AM fluorescent dye solution. The 2× Thallos dye solution (final concentration 0.34 μM to the cells) was prepared by mixing the dye stock (2.97 mM in DMSO) to 1:1 with 10% pluronic acid before adding to the assay buffer. Cells were washed with assay buffer using a microplate washer to remove the medium, resulting in 20 μL of buffer remaining in each well. Immediately, 20 μL of 2× Thallos dye solution was added to cells, and incubated for one hour at 25° C. During the cell dye loading incubation period, a 10-point concentration serial dilution of compound was created from a 10 mM DMSO compound stock by performing a 1:3 serial dilution in DMSO using the Bravo liquid handler. The 2× compound plate was generated by transferring 0.24 μL of the diluted compound in each well to a daughter plate using an Echo acoustic liquid handler. This is further diluted in 40 μL assay buffer, resulting in a range from 30 μM to 1.5 nM final concentration in the assay. The agonist plate (5×) was prepared to include EC80 glutamate concentration (a concentration to elicit 80% of a maximally effective glutamate concentration) in thallium buffer (125 mM […], 1 mM magnesium sulfate, 1.8 mM calcium sulfate, 5 mM glucose, 10 mM HEPES, pH 7.2, 12.5 mM thallium sulfate).
After dye-loading, cell plates were washed with assay buffer to remove excess extracellular dye using a microplate washer, resulting in 20 μL of buffer remaining in each well. After a ten-minute equilibration period, cell, compound and agonist plates were loaded into a Hamamatsu μCell kinetic imaging plate reader equipped with liquid handler to monitor fluorescence changes at 480 nm excitation and 540 nm emission settings. Briefly, after collection of baseline fluorescence, 20 μL of compound was added and incubated for two minutes and twenty seconds. This is immediately followed by adding 10 μL of glutamate-thallium buffer to the wells containing compound. The fluorescent signal was monitored an additional 2.5 minutes after the glutamate addition. Multiple reference wells containing no compound received either no glutamate (for a baseline reference), EC80 glutamate, or ECmax glutamate (for normalization to maximum response). Fluorescence was measured throughout the experiment at a frequency of 1 measurement per every 2 seconds before the glutamate addition and a frequency of 1 measurement per every 1 second after the glutamate addition. Each compound concentration series occurred one time in each plate, and replicates from two or three plates were used in each experimental run. Thallium solutions were handled and disposed of according to guidelines from the Vanderbilt University Chemical Safety department.
Data were normalized using a static ratio function (F/F0) by dividing every fluorescent measurement by the initial fluorescent value for the corresponding well. The increase in signal resulting from the glutamate/thallium addition of the second add was measured by determining the slope from 3 seconds to 13 seconds after the addition. […]
Molecule `Cn1cc2cc(-c3cc4c(cc3-c3ccc(F)cc3)C(=O)NC4)ccc2n1` [Compound 7, 6-(4-fluorophenyl)-5-(2-methyl-2H-indazol-5-yl)isoindolin-1-one] returned an IC50 of 1560 nM.
The same measure, in the same setting: under `O=C1NCc2cc(-c3ccncc3)c(-c3ccc(F)cc3)cc21` [Compound 4, 6-(4-fluorophenyl)-5-(pyridin-4-yl)isoindolin-1-one] stands above 10000 nM; under `Cn1cc(-c2cc3c(cc2-c2ccc(F)cc2F)C(=O)NC3)cc1C#N` [Compound 125, 4-(6-(2,4-difluorophenyl)-1-oxoisoindolin-5-yl)-1-methyl-1H-pyrrole-2-carbonitrile], 1140 nM; under `COc1c(F)cc(-c2cc3c(cc2-c2cccc(C#N)c2)CNC3=O)cc1F` [Compound 182, 3-(6-(3,5-difluoro-4-methoxyphenyl)-1-oxoisoindolin-5-yl)benzonitrile], above 10000 nM.
The same measure, in the same setting: next, `O=C1NCc2cc(-c3cccc4c3CNC4=O)c(-c3ccc(F)cc3F)cc21` [Compound 136, 6′-(2,4-difluorophenyl)-[4,5′-biisoindoline]-1,1′-dione]: 3180 nM; `CCn1cc(-c2cc3c(cc2-c2ccc(F)cc2F)C(=O)NC3)c(C(F)(F)F)n1` [Compound 129, 6-(2,4-difluorophcnyl)-5-(1-cthyl-3-(trifluoromethyl)-1H-pyrazol-4-yl)isoindolin-1-one]: 767 nM.
The same measure, in the same setting: under `Cn1nc(CCc2cc3c(cc2-c2ccc(F)cc2F)C(=O)NC3)cc1C#N` [Compound A9, 3-(2-(6-(2,4-difluorophenyl)-1-oxoisoindolin-5-yl)ethyl)-1-methyl-1H-pyrazole-5-carbonitrile] stands 273 nM; under `COc1ccc(-c2cc3c(cc2-c2cccc(C#N)c2)CNC3=O)c(C)c1` [Compound 175, 3-(6-(4-methoxy-2-methylphenyl)-1-oxoisoindolin-5-yl)benzonitrile], above 10000 nM.
The molecule `O=C1NCc2cc(-c3cnn(CC4CC4)c3)c(-c3ccc(F)cc3F)cc21` [Compound 132, 5-(1-(cyclopropylmethyl)-1H-pyrazol-4-yl)-6-(2,4-difluorophenyl)isoindolin-1-one] returned an IC50 of 529 nM.
As to `COc1ccc(-c2cc3c(cc2-c2cccc(C#N)c2)CNC3=O)c(F)c1` [Compound 157, 3-(6-(2-fluoro-4-methoxyphenyl)-1-oxoisoindolin-5-yl)benzonitrile], the IC50 turned out to be 736 nM.
`COc1ccc(-c2cc3c(cc2-c2cccc(C#N)c2)CNC3=O)cc1F` [Compound 171, 3-(6-(3-fluoro-4-methoxyphenyl)-1-oxoisoindolin-5-yl)benzonitrile] displayed an IC50 of 3550 nM.
The same measure, in the same setting: next, `COc1cc(F)ccc1-c1cc2c(cc1-c1cccc(C#N)c1)CNC2=O` [Compound 156, 3-(6-(4-fluoro-2-methoxyphenyl)-1-oxoisoindolin-5-yl)benzonitrile]: 660 nM.
On the same count and under the same terms, under `COc1cc(F)c(-c2cc3c(cc2-c2cccc(C#N)c2)CNC3=O)cc1F` [Compound 174, 3-(6-(2,5-difluoro-4-methoxyphenyl)-1-oxoisoindolin-5-yl)benzonitrile] stands above 10000 nM.
The same measure, in the same setting: under `Cn1nncc1-c1cccc(-c2cc3c(cc2-c2ccc(F)cc2F)C(=O)NC3)c1` [Compound 151, 6-(2,4-difluorophenyl)-5-(3-(1-methyl-1H-1,2,3-triazol-5-yl)phenyl)isoindolin-1-one] stands 857 nM.
In turn, `Cn1nccc1CCc1cc2c(cc1-c1ccc(F)cc1F)C(=O)NC2` [Compound A7, 6-(2,4-difluorophenyl)-5-(2-(1-methyl-1H-pyrazol-5-yl)ethyl)isoindolin-1-one] had an IC50 of 208 nM.
Same read-out and setting: next, `O=C1NCc2cc(-c3cnn(C4COC4)c3)c(-c3ccc(F)cc3F)cc21` [Compound 155, 6-(2,4-difluorophenyl)-5-(1-(oxetan-3-yl)-1H-pyrazol-4-yl)isoindolin-1-one]: above 10000 nM; `[2H]C1([2H])NC(=O)c2cc(-c3ccc(F)cc3F)c(C([2H])([2H])C([2H])([2H])c3ccn(C)n3)cc21` [Compound A5, 6-(2,4-difluorophenyl)-5-(2-(1-methyl-1H-pyrazol-3-yl)ethyl-1,1,2,2-d4)isoindolin-1-one-3,3-d2]: 205 nM.
The same measure, in the same setting: under `N#Cc1cccc(-c2cc3c(cc2-c2cc(F)cc(C#N)c2)C(=O)NC3)c1` [Compound 189, 3-(6-(3-cyanophenyl)-3-oxoisoindolin-5-yl)-5-fluorobenzonitrile] stands above 10000 nM; under `COc1cc(C#N)ccc1-c1cc2c(cc1-c1cccc(C#N)c1)CNC2=O` [Compound 166, 4-(6-(3-cyanophenyl)-3-oxoisoindolin-5-yl)-3-methoxybenzonitrile], 2450 nM; under `N#Cc1cccc(-c2cc3c(cc2-c2cc(C#N)ccc2F)C(=O)NC3)c1` [Compound 176, 3-(6-(3-cyanophenyl)-3-oxoisoindolin-5-yl)-4-fluorobenzonitrile], above 10000 nM.
Still for that read-out and setting: under `CC(=O)Nc1ccccc1-c1cc2c(cc1-c1ccc(F)cc1F)C(=O)NC2` [Compound 120, N-(2-(6-(2,4-difluorophenyl)-1-oxoisoindolin-5-yl)phenyl)acetamide] stands 1050 nM; under `Cc1noc(C)c1-c1cc2c(cc1-c1ccc(F)cc1F)C(=O)NC2` [Compound 126, 6-(2,4-difluorophenyl)-5-(3,5-dimethylisoxazol-4-yl)isoindolin-1-one], above 10000 nM; under `CS(=O)(=O)n1cc(-c2cc3c(cc2-c2ccc(F)cc2F)C(=O)NC3)cn1` [Compound 127, 6-(2,4-difluorophenyl)-5-(1-(methylsulfonyl)-1H-pyrazol-4-yl)isoindolin-1-one], 7940 nM.
`O=C1NCc2cc(-c3cnn(C4COC4)c3)c(-c3ccc(F)cc3)cc21` [Compound 3, 6-(4-fluorophenyl)-5-(1-(oxctan-3-yl)-1H-pyrazol-4-yl)isoindolin-1-one] had an IC50 above 10000 nM.
`N#Cc1cccc(-c2cc3c(cc2-c2cc(C(F)(F)F)ccc2F)C(=O)NC3)c1` [Compound 180, 3-(6-(2-fluoro-5-(trifluoromethyl)phenyl)-1-oxoisoindolin-5-yl)benzonitrile] showed a half-maximal inhibitory concentration (IC50) above 10000 nM.
Still for that read-out and setting: next, `Cc1ccc(-c2cc3c(cc2-c2cccc(C#N)c2)CNC3=O)c(F)c1` [Compound 142, 3-(6-(2-fluoro-4-methylphenyl)-1-oxoisoindolin-5-yl)benzonitrile]: 1310 nM; `O=C1NCc2cc(-c3cnc(Cl)n3C3CCCCO3)c(-c3ccc(F)cc3F)cc21` (stereo not shown) [Compound 148, 5-(2-chloro-1-(tetrahydro-2H-pyran-2-yl)-1H-imidazol-5-yl)-6-(2,4-difluorophenyl)isoindolin-1-one]: 454 nM.
For `N#Cc1cccc(-c2cc3c(cc2-c2ccc(C#N)cc2F)C(=O)NC3)c1` [Compound 138, 4-(6-(3-cyanophenyl)-3-oxoisoindolin-5-yl)-3-fluorobenzonitrile], it took 537 nM to reach half-maximal inhibition (IC50).
The same measure, in the same setting: next, `N#Cc1cccc(-c2cc3c(cc2-c2ccc(OC(F)F)cc2F)C(=O)NC3)c1` [Compound 162, 3-(6-(4-(difluoromethoxy)-2-fluorophenyl)-1-oxoisoindolin-5-yl)benzonitrile]: 891 nM.
